Laboratory results reported in the supplement of paper PMC10627819.

Assays:
S. aureus DSM 20231 [1] = experiment: fitness (endpoint OD595 vs no drug) (fraction); higher = more growth
Procedure, shortened: (§1)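 In 384-well plates at 37 °C, cultures began at OD595 0.01 in 30 µl, with 55 µl used for S. pneumoniae. OD595 readings every 30 min for 14 h were corrected by the first reading. Fitness divides the stationary-phase transition optical density by the robust mean of no-drug control wells. The result is capped at 1.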

S. aureus Newman [2] = experiment: as above
Procedure, shortened: as §1

B. subtilis 168 = experiment: Bliss interaction score (quartile over a dose matrix) (fitness difference); higher = more antagonism (negative = synergy)
Procedure, shortened: (§2)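 The Bliss score is observed minus expected fitness, where expected fitness is the product of the single-drug fitness values inferred from the combination data. Fitness is the OD595 at the onset of stationary phase over the plate's robust no-drug mean, capped at 1. Scores are summarised by quartiles over technical, biological and donor/recipient replicates.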

S. pneumoniae D39V = experiment: as above
Procedure, shortened: as §2

S. aureus DSM 20231 [3] = experiment: as above
Procedure, shortened: as §2

S. aureus Newman [4] = experiment: as above
Procedure, shortened: as §2
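Throughout, for Bliss interaction score (quartile over a dose matrix): first quartile when negative (synergy) and third quartile when positive (antagonism).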
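Throughout, for fitness (endpoint OD595 vs no drug): OD595 on entry to stationary phase over no-drug wells; at most 1.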

CC[C@H]1OC(=O)[C@H](C)[C@@H](O[C@H]2C[C@@](C)(OC)[C@@H](O)[C@H](C)O2)[C@H](C)[C@@H](O[C@@H]2O[C@H](C)C[C@H](N(C)C)[C@H]2O)[C@](C)(O)C[C@@H](C)CN(C)[C@H](C)[C@@H](O)[C@]1(C)O [Azithromycin] + CCCCCCCCCC(=O)N[C@@H]1[C@H]([C@@H]([C@H](O[C@H]1OC2=C3C=C4C=C2OC5=C(C=C(C=C5)[C@H]([C@H]6C(=O)N[C@@H](C7=C(C(=CC(=C7)O)OC8[C@H]([C@H]([C@@H]([C@H](O8)CO)O)O)O)C9=C(C=CC(=C9)[C@H](C(=O)N6)NC(=O)[C@@H]4NC(=O)[C@@H]1C2=CC(=CC(=C2)OC2=C(C=CC(=C2)[C@H](C(=O)N[C@H](CC2=CC(=C(O3)C=C2)Cl)C(=O)N1)N)O)O)O)C(=O)O)O[C@H]1[C@@H]([C@H]([C@@H]([C@H](O1)CO)O)O)NC(=O)C)Cl)CO)O)O [Teicoplanin]
fitness, main component drawn
Settings	partner 0.1562 µg/mL	partner 0.3125 µg/mL	partner 0.625 µg/mL
S. aureus DSM 20231 [1], first compound 0.125 µg/mL	0.915	0.924	0.991
S. aureus DSM 20231 [1], first compound 0.25 µg/mL	0.935	0.987	≥ 1
S. aureus Newman [2], first compound 0.125 µg/mL	0.899	0.928	≥ 1
S. aureus Newman [2], first compound 0.25 µg/mL	0.978	0.974	0.775

fitness, S. aureus Newman [2], one replicate, main component drawn
Settings	first compound 0.125 µg/mL	first compound 0.25 µg/mL	first compound 0.5 µg/mL
partner 0.62 µg/mL	0.799	0.998	0.863
partner 1.24 µg/mL	0.786	0.812	0.896
partner 2.48 µg/mL	0.57	0.55	0.579

main component drawn
Settings	Bliss interaction score
B. subtilis 168	-0.0653
S. aureus DSM 20231 [3]	0.104
S. aureus Newman [4]	0.169
S. pneumoniae D39V	0.0706

CC[C@H]1OC(=O)[C@H](C)[C@@H](O[C@H]2C[C@@](C)(OC)[C@@H](O)[C@H](C)O2)[C@H](C)[C@@H](O[C@@H]2O[C@H](C)C[C@H](N(C)C)[C@H]2O)[C@](C)(O)C[C@@H](C)CN(C)[C@H](C)[C@@H](O)[C@]1(C)O [Azithromycin] + CN[C@H](CC(C)C)C(=O)N[C@H]1C(=O)N[C@@H](CC(N)=O)C(=O)N[C@H]2C(=O)N[C@H]3C(=O)N[C@H](C(=O)N[C@H](C(=O)O)c4cc(O)cc(O)c4-c4cc3ccc4O)[C@H](O)c3ccc(c(Cl)c3)Oc3cc2cc(c3O[C@@H]2O[C@H](CO)[C@@H](O)[C@H](O)[C@H]2O[C@H]2C[C@](C)(N)[C@H](O)[C@H](C)O2)Oc2ccc(cc2Cl)[C@H]1O [Vancomycin]
fitness
Settings	partner 0.1875 µg/mL	partner 0.375 µg/mL	partner 0.75 µg/mL
S. aureus DSM 20231 [1], first compound 0.125 µg/mL	0.846	0.875	0.898
S. aureus DSM 20231 [1], first compound 0.25 µg/mL	0.819	0.874	0.829
S. aureus Newman [2], first compound 0.125 µg/mL	0.909	0.906	0.882
S. aureus Newman [2], first compound 0.25 µg/mL	0.855	0.893	0.862

Settings	Bliss interaction score
B. subtilis 168	-0.0288
S. aureus DSM 20231 [3]	0.0943
S. aureus Newman [4]	-0.104
S. pneumoniae D39V	-0.0427

CC[C@H]1OC(=O)[C@H](C)[C@@H](O[C@H]2C[C@@](C)(OC)[C@@H](O)[C@H](C)O2)[C@H](C)[C@@H](O[C@@H]2O[C@H](C)C[C@H](N(C)C)[C@H]2O)[C@](C)(O)C[C@@H](C)CN(C)[C@H](C)[C@@H](O)[C@]1(C)O [Azithromycin] + CO/N=C(\C(=O)N[C@@H]1C(=O)N2C(C(=O)[O-])=C(C[N+]3(C)CCCC3)CS[C@H]12)c1csc(N)n1 [Cefepime]
fitness
Settings	first compound 0.125 µg/mL	first compound 0.25 µg/mL	first compound 0.5 µg/mL
S. aureus DSM 20231 [1], partner 0.125 µg/mL	0.842	0.858	–
S. aureus DSM 20231 [1], partner 0.25 µg/mL	0.818	0.838	–
S. aureus DSM 20231 [1], partner 0.5 µg/mL	0.833	0.843	0.565
S. aureus Newman [2], partner 0.125 µg/mL	0.872	0.927	0.752
S. aureus Newman [2], partner 0.25 µg/mL	0.799	0.872	0.669
S. aureus Newman [2], partner 0.5 µg/mL	0.794	0.809	0.551

Settings	Bliss interaction score
B. subtilis 168	0.0866
S. aureus DSM 20231 [3]	0.103
S. aureus Newman [4]	0.0874
S. pneumoniae D39V	0.112

CC[C@H]1OC(=O)[C@H](C)[C@@H](O[C@H]2C[C@@](C)(OC)[C@@H](O)[C@H](C)O2)[C@H](C)[C@@H](O[C@@H]2O[C@H](C)C[C@H](N(C)C)[C@H]2O)[C@](C)(O)C[C@@H](C)CN(C)[C@H](C)[C@@H](O)[C@]1(C)O [Azithromycin] + Cn1nnc(-c2ccc(-c3ccc(N4C[C@H](CO)OC4=O)cc3F)cn2)n1 [Tedizolid]
fitness
Settings	first compound 0.125 µg/mL	first compound 0.25 µg/mL	first compound 0.5 µg/mL
S. aureus DSM 20231 [1], partner 0.0625 µg/mL	0.887	0.765	–
S. aureus DSM 20231 [1], partner 0.125 µg/mL	0.7	0.667	0.294
S. aureus DSM 20231 [1], partner 0.25 µg/mL	0.165	0.231	0.0821
S. aureus Newman [2], partner 0.0625 µg/mL	0.867	0.818	–
S. aureus Newman [2], partner 0.125 µg/mL	0.744	0.644	–

Settings	Bliss interaction score
B. subtilis 168	-0.0935
S. aureus DSM 20231 [3]	-0.0615
S. aureus Newman [4]	-0.14
S. pneumoniae D39V	0.0648

CC[C@H]1OC(=O)[C@H](C)[C@@H](O[C@H]2C[C@@](C)(OC)[C@@H](O)[C@H](C)O2)[C@H](C)[C@@H](O[C@@H]2O[C@H](C)C[C@H](N(C)C)[C@H]2O)[C@](C)(O)C[C@@H](C)CN(C)[C@H](C)[C@@H](O)[C@]1(C)O [Azithromycin] + O=C(N[C@H](CO)[C@H](O)c1ccc([N+](=O)[O-])cc1)C(Cl)Cl [Chloramphenicol]
fitness
Settings	first compound 0.125 µg/mL	first compound 0.25 µg/mL	first compound 0.5 µg/mL
S. aureus DSM 20231 [1], partner 0.75 µg/mL	0.703	0.657	0.29
S. aureus DSM 20231 [1], partner 1.5 µg/mL	0.544	0.366	0.139
S. aureus DSM 20231 [1], partner 3 µg/mL	0.155	0.113	0.0604
S. aureus Newman [2], partner 0.75 µg/mL	0.76	0.692	0.461
S. aureus Newman [2], partner 1.5 µg/mL	0.515	0.527	0.253
S. aureus Newman [2], partner 3 µg/mL	–	0.2	0.109

Settings	Bliss interaction score
B. subtilis 168	-0.116
S. aureus DSM 20231 [3]	-0.153
S. aureus Newman [4]	-0.101
S. pneumoniae D39V	0.0336
